{
  "source": "ChEMBL document CHEMBL5154879",
  "about": "“Induction of Genes Implicated in Stress Response and Autophagy by a Novel Quinolin-8-yl-nicotinamide QN523 in Pancreatic Cancer” (J Med Chem, 2022)",
  "assay_type_in_all_cases": "functional, cell-based",
  "key": {"MIA PaCa-2 [1]": {"test_system": "MIA PaCa-2", "experiment": "Induction of autophagy in human MIA PaCa-2 cells assessed as accumulation of GABARAPL1 marker gene expression at […] incubated for 72 hrs by Western blot analysis"}, "MIA PaCa-2 [2]": {"test_system": "MIA PaCa-2", "experiment": "Induction of autophagy in human MIA PaCa-2 cells assessed as accumulation of WIP11 marker gene expression at […] incubated for 72 hrs by Western blot analysis"}, "MIA PaCa-2 [3]": {"test_system": "MIA PaCa-2", "experiment": "Induction of autophagy in human MIA PaCa-2 cells assessed as accumulation of LC3B marker gene expression at […] incubated for 72 hrs by Western blot analysis"}, "MIA PaCa-2 [4]": {"test_system": "MIA PaCa-2", "experiment": "Cytotoxicity against human MIA PaCa-2 cells assessed as inhibition of cell growth incubated for 72 hrs by MTT assay", "conditions": "MIA PaCa-2, 72 h"}},
  "note": "Activity calls are given as the source filed them. The rule behind the calls is not given here.",
  "data": [
    {"smiles": "CC1=C(CC(=O)O)c2cc(F)ccc2/C1=C\\c1ccc([S+](C)[O-])cc1", "note": "(centres undefined)", "values": [
      {"measurement": "Activity", "setting": "MIA PaCa-2 [1]", "result": "Active"},
      {"measurement": "Activity", "setting": "MIA PaCa-2 [2]", "result": "Active"},
      {"measurement": "Activity", "setting": "MIA PaCa-2 [3]", "result": "Active"},
      {"measurement": "IC50", "setting": "MIA PaCa-2 [4]", "result": 300, "unit": "µM"}
    ]}
  ]
}
